Test [1] concerns acetylcholine-induced abdominal constriction. Description: acetylcholine-induced abdominal constriction test (ACH). To be noted: for ED50: Mus musculus. Format: in vivo, mice. An excerpt:
(§1) The test procedures used to determine the analgesic activities of the compounds have been described in detail in the prior art and are as follows: The acetylcholine-induced abdominal constriction test, which is a primary analgesic screening test designed to measure the ability of a test agent to suppress acetylcholine-induced abdominal constriction in mice, described by Collier et al., Brit. J. Pharmacol. Chemotherap. 32, 295 (1968); a modification of the anti-bradykinin test, which is also a primary analgesic screening procedure, described by Berkowitz et al., J. Pharmacol. Exptl Therap. 177, 500-508 (1971), Blane et al., J. Pharm. Pharmacol 19, 367-373 (1967), Botha et al., Eur. J. Pharmacol. 6, 312-321 (1969) and Deffenu et al., J. Pharm. Pharmacol. 18, 135 (1966); the rat paw flexion test, described by Kuzuna et al., Chem. Pharm. Bull., 23, 1184-1191 (1975), Winter et al., J. Pharm. Exptl. Therap., 211, 678-685 (1979) and Capetola et al., J. Pharm. Exptl. Therap. 214, 16-23 (1980); and the mouse vas deferens adrenergic transmission test, described by Henderson et al., Brit. J. Pharmacol., 46, 764-766 (1972).
(§2) In the acetylcholine-induced abdominal constriction test, the test compounds were administered either as suspensions in gum tragacanth (GT) or as aqueous solutions prepared by addition of just sufficient dilute aqueous methanesulfonic acid (MS) or dilute aqueous lactic acid (LA) to dissolve the compound The compounds are identified by the example number above where their preparations are described All data in the anti-bradykinin, rat writhing and Randall-Selitto tests were obtained on oral administration.

Another test has as its system bradykinin. Nature of the test: anti-bradykinin test (BDK/BRKD). Format: in vivo. To be noted: oral.
From the text: as §1, with “(1972). […]” for “(1972).”

Test [2] concerns acetic acid-induced writhing. Nature of the test: inhibition of acetic acid-induced writhing in the rat (RW). Format: in vivo, rat (male Sprague Dawley). To be noted: oral. On the procedure:
(§3) In order to further detail the analgesic profiles of the compounds of the invention, their activities in the inhibition of acetic acid-induced writhing assay in the rat, the inhibition of cyclooxygenase assay and a modification of the Randall-Selitto analgesic test were also determined The test procedure used to determine the inhibition of acetic acid-inducedwrithing in the rat is described as follows.
Male Sprague Dawley rats (Taconic Farms) weighing between 160 and 200g were treated in a random and blind fashion with 1% gum tragacanth vehicle or test agent suspended or dissolved in 1% gum tragacanth. Rats were individually housed in plastic cages (28×18×12 cm) throughout the experiment. Forty-five minutes after drug treatment, 0.5 ml of 9% (w/v) acetic acid was administered intraperitoneally, and animals were returned to their cages for 10 minutes. Writhing is not normally seen during this 10 minute period. Each animal was then observed for a writhing response during a subsequent 10 minute interval (55-65 minutes post-drug treatment). A writhing response was defined as arching of the back with extension of the hindlimbs and contraction of abdominal muscles. […] Data were expressed as percent inhibition of the mean number of writhes in the vehicle treated control group. Data were evaluated for statistical significance by Dunnett's test, and ED50 's for inhibition of acetic acid-induced writhing were determined by the graded dose-response analysis of Tallarida and Murray, Manual of Pharmacologic Calculations with Computer Programs, Springer Verlag, New York (1981).
as §2
(In general: In writhing tests, fewer writhes than in controls are read as antinociception.)

A further test deals with cyclooxygenase. Nature of the test: inhibition of cyclooxygenase assay (CO). Format: biochemical, mice. To be noted: 30 μM; negative values = increases over controls, not demonstrated to differ significantly. On the procedure:
as §3
The test procedure used to determine cyclooxygenase inhibitory activity is described as follows.
Male mice were decapitated and stomach and brain (cerebral cortex, hypothalamus and medulla) were rapidly dissected over ice. The brains were homogenized in 3 volumes of ice cold 0.1 M potassium phosphate buffer, pH 7.4 containing 10 mM EDTA and 1% BSA (w/v). The homogenate was centrifuged at 10,000 xg for 15 minutes. The resulting supernatant was decanted and centrifuged at 100,000 xg for 60 minutes yielding a crude microsomal pellet. The pellet was washed superficially three times in 3 volumes of 0.1 M potassium phosphate buffer before final resuspension in 1.5 volumes of 0.1 M potassium phosphate buffer containing 1 mM norepinephrine and 1 mM reduced glutathione. The microsomes (50 μl) were preincubated with 50 μl of indomethacin (0.3 μM), test compound or norepinephrine/glutathione-containing buffer for 5 minutes at room temperature. The enzyme reaction was initiated by the addition of 50 μl of ^14 C arachidonic acid to yield a final concentration of 10 μM. After a further incubation of 15 minutes at 37° C., the reaction was stopped by the addition of 50 μl of 4M formic acid. Blank values were determined by using microsomes boiled for 5 minutes but otherwise were treated similarly. The ^14 C-labelled material was extracted 3 times with 0.5 ml of ethyl acetate with intermediate centrifugations at 500 xg for 5 minutes to clarify the aqueous and organic phases. This procedure extracted >95% of the ^14 C-labelled materials. The ethyl acetate washes were added to tubes containing 5 μg each of PGE2, PGF2, PGD2, and 10 μg PGI2 in 25 μl of ethanol. The mixture was evaporated to dryness under nitrogen and the residue dissolved in 150 μl of chloroform:methanol (2:1). This solution was spotted on 5×20 cm silica gel plates and chromatographed with an ethyl acetate, trimethylpentane, acetic acid and water mixture (110:50:20:100 by volume) prepared by shaking the solvents and separating and discarding the organic phase. The prostaglandins were visualized in iodine vapor, the various spots were scraped, and the ^14 C-labelled prostaglandins quantitated by liquid scintillation spectroscopy in 10 ml of BIOFLUOR® or FLUORODYNE®.
as §2

The subject of test [3] is brewers' yeast-induced hyperalgesia. Description: modification of the Randall-Selitto analgesic (paw pressure) test (R-S). Format: in vivo, rat (Sprague-Dawley). To be noted: Rattus norvegicus; oral; read-out: R-S minimum effective dose, MED. On the procedure:
as §3
The modification of the Randall-Selitto analgesic test procedure used is described as follows:
Female Sprague-Dawley rats, weighing 60 to 95 grams, were routinely used. […] The rats were housed 10 per cage with food and water available ad libitum.
The Randall-Selitto Test device used was a UGO Basile Analgesy Meter (catalog no. 7200), with the flat-topped plinth on the bottom, acting as a platform upon which the hind paw of the rat was placed and the round-pointed pusher oriented downward. […]
Animals were given the test drug, p.o., two hours after the sub-plantar injection, four doses customarily being given, along with vehicle control and a positive control (Zomepirac). […] Treatments were assigned in such a way that both the range and the means of the baseline readings were as nearly equal as possible for all treatments. […]
Results were analyzed with the Student's t-test. […]

The next test deals with mouse vas deferens. Nature of the test: mouse vas deferens adrenergic transmission test (MVD). To be noted: concentration producing 50% of the maximum response.
From the text: as §1
As before, the compounds are identified by the example number above where their preparations are described.

Where [4] appears, read: p.o., dose level 100, suspension in gum tragacanth (GT).

Broadly, the ED50 is the dose at which the effect has come halfway, by size or by number of responders. By IC50 is commonly meant the concentration at which inhibition is half-maximal. A low value points to greater potency in that assay.

Turning to `Cc1c(C(=O)c2cccc3ccccc23)c2cccc3c2n1C(CN1CCOCC1)CO3` (stereo not shown) [Example 1B, 3-(4-morpholinylmethyl)-5-methyl-6-(1-naphthylcarbonyl)-2,3-dihydropyrrolo1,2,3-de]-1,4-benzoxazine methanesulfonate], the 50% effective dose (ED50) in test [1] (iv) worked out at 0.25 mg/kg; in test [1] (po, aqueous methanesulfonic acid (MS)), 33 mg/kg; in the test with bradykinin it was 35 mg/kg; in test [2] (Rattus norvegicus), 8.6 mg/kg. Moreover, the ACH percent inhibition stood at 30% in test [1] (setting [4]) and 73% in test [1] (s.c., dose level 100). The “CO percent inhibition (% I)” value in the test with cyclooxygenase was -35%. For the same compound, the minimal effective dose in test [3] worked out at 0.003 mg/kg.

Compound `COc1ccc(C(=O)c2c(C)n3c4c(cccc24)OCC3CN2CCOCC2)cc1` (stereo not shown) [Example 1A, 3-(4-morpholinylmethyl)-5-methyl-6-(4-methoxybenzoyl)-2,3-dihydropyrrolo[1,2,3-de]-1,4-benzoxazine] registered a 50% effective dose (ED50) in test [1] (iv) of 3.4 mg/kg. For the same compound, the ACH percent inhibition was determined as 30% in test [1] (p.o., dose level 100, aqueous methanesulfonic acid (MS)) and 20% in test [1] (setting [4]). In the test on bradykinin (dose level 300), this compound showed a BRKD percent inhibition of 0%. For the same compound, the RW percent inhibition in test [2] (dose level 100) was 50.6%; in test [2] (dose level 300), 23%. For the same compound, the “CO percent inhibition (% I)” value in the test with cyclooxygenase amounted to 19%. Further, it took 123 ± 13 nM to reach half-maximal inhibition in the test on mouse vas deferens (IC50).

Source of the values: US4939138A, “2- and 3-aminomethyl-6-arylcarbonyl-2,3-dihydropyrrolo(1,2,3-DE)-1,4-benzoxazin es” (Sterling Drug Inc., priority 1989, dated 1990).
